Data from US20260049089A1, “KRAS INHIBITOR COMPOUND” (SHANGHAI APEIRON THERAPEUTICS COMPANY LIMITED, priority 2022, published 2026).
Read-outs that look alike come from different tables or passages of the source.

Tests used:
Format in all cases: cell-based
AGS cells = experiment: 3D cell proliferation assay (CellTiter-Glo 3D), AGS; conditions: 5 days, read-out: 3D Proliferation Inhibition AGS_IC50
Method: (§1) Using a nanoliter liquid handling system (LABCYTE, P-0200), the diluted test compounds were added to a 384-well low-adsorption cell culture plate. Cells were seeded into the wells, and the plate was placed in an incubator at 37° C. with 5% CO2. After co-incubating the compounds and cells for 5 days, CellTiter-Glo® 3D reagent was added. Luminescence values were measured using an EnVision Multilabel Plate Reader (luminescence is proportional to the ATP content in the system, and ATP content directly reflects the number of viable cells). Finally, the IC50 values (half-maximal inhibitory concentrations) of the compounds were determined using non-linear fitting equations in XLFit software with the following parameters: […]
(§2) X: Logarithm of compound concentration • Y: Inhibition rate (%)
(§3) [formula] • Negative control: DMSO • Positive control: Medium only

AsPC-1 cells = experiment: 3D cell proliferation assay (CellTiter-Glo 3D), AsPC-1; conditions: 5 days, read-out: 3D Proliferation Inhibition AsPC-1_IC50
Method: as §1, §2, §3

pERK in AGS cells = experiment: ERK phosphorylation cell assay, AGS; conditions: 3 hours compound incubation, read-out: pERK AGS_IC50
Method: (§4) • Day 1: AGS cells were seeded into a 384-well cell culture plate and incubated overnight at 37° C. with 5% CO2 in a cell culture incubator. • Day 2: Compounds were added to the plate using an Echo550 liquid handler, followed by incubation at 37° C. with 5% CO2 in a cell culture incubator for 3 hours. Subsequently, the cells were fixed with paraformaldehyde, permeabilized with methanol, and blocked with blocking buffer. A primary antibody mixture (rabbit anti-pERK, mouse anti-GAPDH) was added, and the plate was incubated overnight at 4° C. • Day 3: The primary antibodies were removed, and a secondary antibody mixture (goat anti-rabbit 800CW, goat anti-mouse 680RD) was added. The plate was incubated at room temperature in the dark. After three washes with PBST, the plate was inverted and centrifuged for 1 minute. Fluorescence signal values were read using an Odyssey CLx imaging system.
(§5) [formula] • Negative control: DMSO • Positive control: 10 μM Reference • Fitted using XLFit 5.0 with the following parameters:
(§6) [formula] • X: Log of compound concentration • Y: Mean relative expression levels of p-ERK across replicates

pERK in AsPC-1 cells = experiment: ERK phosphorylation cell assay, AsPC-1; conditions: read-out: pERK AsPC-1_IC50
Method: [Worded in the source for another cell line; this cell line is reported under the same test.] as §4, §5, §6

[1] = Homo sapiens, ASPC1, AsPC-1 cells

C[C@@]1(O)CCCN(c2nc(OCC34CCCN3CCC4)nc3c(F)c4c(cc23)NCCCCCc2c(F)ccc3cccc-4c23)C1 [Example 7, (R)-1-(3,15-Difluoro-13-((tetrahydro-1H-pyrazin-7a(5H)-yl)methoxy)-4,5,6,7,8,9-hexahydronaphtho[1′,8′:4,5,6]azecino[2,3-g]quinazolin-11-yl)-3-methylpiperidin-3-ol] gave an IC50 (AGS cells; Homo sapiens, AGS, 120 h) of 2290 nM, an IC50 (AsPC-1 cells; Homo sapiens, ASPC1, 120 h) of 2860 nM and an IC50 (pERK in AGS cells; Homo sapiens, AGS, 3 h) of 3470 nM.
For C=C1CN2CCCC2(COc2nc(N3CCC[C@@](C)(O)C3)c3cc4c(c(F)c3n2)-c2cc(O)cc3ccc(F)c(c23)CCCCCN4)C1 (stereo partly shown) [Example 25], the IC50 (AGS cells; Homo sapiens, AGS, 120 h) was 112 nM and the IC50 (AsPC-1 cells; Homo sapiens, ASPC1, 120 h) was 336 nM.
With C=C1CN2CCCC2(COc2nc(N3CCC[C@@](C)(O)C3)c3cc4c(c(F)c3n2)-c2cc(O)cc3ccc(F)c(c23)CCCCCN4S(C)(=O)=O)C1 (stereo partly drawn) [Example 45, 3,15-difluoro-11-((R)-3-hydroxy-3-methylpiperidin-1-yl)-13-((2-methylenetetrahydro-1H-pyrazin-7a(5H)-yl)methoxy)-9-(methylsulfonyl)-4,5,6,7,8,9-hexahydronaphtho[1′,8′:4,5,6][1]azacycloundecano[2,3-g]quinazolin-17-ol] the IC50 (AGS cells; Homo sapiens, AGS, 120 h) was 3210 nM, the IC50 (AsPC-1 cells; Homo sapiens, ASPC1, 120 h) was 4090 nM and the IC50 (pERK in AGS cells; Homo sapiens, AGS, 3 h) was 3390 nM.
C[C@@]1(O)CCCN(c2nc(OCC3(N4CCOCC4)CC3)nc3c(F)c4c(cc23)NCCCCCc2c(F)ccc3cc(O)cc-4c23)C1 (single isomer, unassigned) [Example 33B] was tested, and the IC50 (AGS cells) was 3080 nM, the IC50 (pERK in AsPC-1 cells; AsPC-1 cells) was > 10000 nM and the IC50 (AsPC-1 cells) was 4670 nM. For the same compound, the IC50 (pERK in AGS cells) was > 10000 nM.
C[C@@]1(O)CCCN(c2nc(OCC34CCCN3C[C@]3(C4)CC3(F)F)nc3c(F)c4c(cc23)NCCCCCc2c(F)ccc3cc(O)cc-4c23)C1 (single isomer, unassigned) [Example 24A] showed an IC50 (AGS cells; Homo sapiens, AGS, 120 h) of 508 nM, an IC50 (pERK in AsPC-1 cells; AsPC-1 cells) of 352 nM and an IC50 (AsPC-1 cells; Homo sapiens, ASPC1, 120 h) of 847 nM. For the same compound, the IC50 (pERK in AGS cells) was 91 nM.
In the case of C=C1CN2CCCC2(COc2nc(N3CCC[C@@](C)(O)C3)c3cc4c(c(F)c3n2)-c2cc(O)cc3ccc(F)c(c23)CCOCCN4C)C1 (stereo partly shown) [Example 48], the IC50 (AGS cells; Homo sapiens, AGS, 120 h) is reported as 7.4 nM, the IC50 (pERK in AsPC-1 cells; [1]) is reported as 17 nM and the IC50 (AsPC-1 cells; Homo sapiens, ASPC1, 120 h) is reported as 42 nM. The IC50 (pERK in AGS cells; Homo sapiens, AGS, 3 h) was 3.3 nM.
With C[C@H](Oc1nc(N2CCC[C@@](C)(O)C2)c2cc3c(c(F)c2n1)-c1cc(O)cc2ccc(F)c(c12)CCCCCN3)[C@@H]1CCCN1C [Example 35, 3,15-Difluoro-11-((R)-3-hydroxy-3-methylpiperidin-1-yl)-13-((S)-1-((S)-1-methylpyrrolidin-2-yl)ethoxy)-4,5,6,7,8,9-hexahydro-naphtho[1′,8′:4,5,6][1]azacycloundecino[2,3-g]quinazoline-17-ol] the IC50 (AGS cells; Homo sapiens, AGS, 120 h) was 2690 nM, the IC50 (pERK in AsPC-1 cells; [1]) was > 10000 nM and the IC50 (AsPC-1 cells; Homo sapiens, ASPC1, 120 h) was 2830 nM. For the same compound, the IC50 (pERK in AGS cells; Homo sapiens, AGS, 3 h) was 4580 nM.
For CN1CCCCCc2c(F)ccc3cc(O)cc(c23)-c2c1cc1c(N3CCC[C@@](C)(O)C3)nc(OC[C@@]34CCCN3C[C@H](F)C4)nc1c2F (single isomer, unassigned) [Example 6B], the IC50 (AGS cells) was 1040 nM, the IC50 (AsPC-1 cells) was 1370 nM and the IC50 (pERK in AGS cells) was 450 nM.
CN1CCCCCc2c(F)ccc3cc(O)cc(c23)-c2c1cc1c(N3CCC[C@@](C)(O)C3)nc(OC[C@@]34CCCN3C[C@H](F)C4)nc1c2F (single isomer, unassigned) [Example 6A] was tested, and the IC50 (AGS cells) was 127 nM, the IC50 (AsPC-1 cells) was 202 nM and the IC50 (pERK in AGS cells) was 30 nM.
C=C1CN2CCCC2(COc2nc(N3CCC[C@@](C)(O)C3)c3cc4c(c(F)c3n2)-c2cc(O)cc3ccc(F)c(c23)CCCCCN4C(C)=O)C1 (stereo partly drawn) [Example 44, 1-(3,15-Difluoro-17-hydroxy-11-((R)-3-hydroxy-3-methylpiperidin-1-yl)-13-((2-methylene-tetrahydro-1H-pyrazin-7a(5H)-yl)methoxy)-5,6,7,8-tetrahydronaphtho[1′,8′:4,5,6][1]azacycloundecino[2,3-g]quinazolin-9(4H)-yl)ethan-1-one] gave an IC50 (AGS cells; Homo sapiens, 120 h) of 1860 nM, an IC50 (AsPC-1 cells; Homo sapiens, ASPC1, 120 h) of 3900 nM and an IC50 (pERK in AGS cells; Homo sapiens) of 490 nM.
C[C@@]1(O)CCCN(c2nc(OCC34CCCN3C3CC3C4)nc3c(F)c4c(cc23)NCCCCCc2c(F)ccc3cc(O)cc-4c23)C1 (stereo partly drawn) [Example 37, 3,15-Difluoro-13-((hexahydrocyclopropano[b]pyrrolizin-5a(3H)-yl)methoxy)-11-((R)-3-hydroxy-3-methylpiperidin-1-yl)-4,5,6,7,8,9-hexahydro-naphtho[1′,8′:4,5,6][1]azacycloundecino[2,3-g]quinazoline-17-ol] gave an IC50 (pERK in AsPC-1 cells; [1]) of 3510 nM and an IC50 (pERK in AGS cells; Homo sapiens, AGS, 3 h) of 546 nM.
In the case of CC1(O)CCCN(c2nc(OCC34CCC(CC3)CO4)nc3c(F)c4c(cc23)NCCCCCc2c(F)ccc3cc(O)cc-4c23)C1 [Example 18B, (R)-13-(((2-oxabicyclo[2.2.2]octan-1-yl)methoxy)-3,15-difluoro-11-(3-hydroxy-3-methylpiperidin-1-yl)-4,5,6,7,8,9-hexahydro-naphtho[1′,8′:4,5,6][1]azacycloundecino[2,3-g]quinazoline-17-ol], the IC50 (pERK in AsPC-1 cells; AsPC-1 cells) is reported as > 10000 nM and the IC50 (pERK in AGS cells) is reported as > 10000 nM.
With CCN1CCCc2c(F)ccc3cc(O)cc(c23)-c2c(cc3c(N4CC5CCC(C4)N5)nc(OC[C@@]45CCCN4C[C@H](F)C5)nc3c2F)C1=O [Example 13, 10-((1R,5S)-3,8-diazabicyclo[3.2.1]oct-3-yl)-7-ethyl-3,14-difluoro-12-(((2R,7aS)-2-fluorotetrahydro-1H-pyrazin-7a(5H)-yl)methoxy)-16-hydroxy-4,5,6,7-tetrahydro-8H-naphtho[1′,8′:5,6,7]acrylo[3,4-g]quinazolin-8-one] the IC50 (pERK in AsPC-1 cells; [1]) was 8040 nM and the IC50 (pERK in AGS cells; Homo sapiens, AGS, 3 h) was 3950 nM.
C=C1CN2CCC[C@@]2(COc2nc(N3CCC[C@@](C)(O)C3)c3cc4c(c(F)c3n2)-c2cccc3ccc(F)c(c23)CCOCCN4)C1 [Example 53, (R)-1-(3,15-difluoro-13-(((S)-2-methylenetetrahydro-1H-pyrazin-7a(5H)-yl)methoxy)-4,5,8,9-tetrahydro-7H-naphtho[1′,8′:7,8,9][1]oxa[4]azacycloundeca[5,6-g]quinazoline-11-yl)-3-methylpiperidin-3-ol] gave an IC50 (pERK in AsPC-1 cells; [1]) of 3300 nM and an IC50 (pERK in AGS cells; Homo sapiens, AGS, 3 h) of 2180 nM.
With COC12CCC(COc3nc(N4CCC[C@@](C)(O)C4)c4cc5c(c(F)c4n3)-c3cc(O)cc4ccc(F)c(c34)CCCCCN5)(CC1)CC2 [Example 20A] the IC50 (pERK in AsPC-1 cells; [1]) was > 10000 nM and the IC50 (pERK in AGS cells; Homo sapiens, AGS, 3 h) was > 10000 nM.
O=C1CCCCc2c(F)ccc3cc(O)cc(c23)-c2c(cc3c(N4CC5CCC(C4)N5)nc(OC[C@@]45CCCN4C[C@H](F)C5)nc3c2F)N1 [Example 4] was tested, and the IC50 (AGS cells; Homo sapiens, AGS, 120 h) was 848 nM, the IC50 (AsPC-1 cells; Homo sapiens, ASPC1, 120 h) was 4870 nM and the IC50 (pERK in AGS cells; Homo sapiens, AGS, 3 h) was 331 nM.
With C[C@@]1(O)CCCN(c2nc(OCC34CCC(CC3)OC4)nc3c(F)c4c(cc23)NCCCCCc2c(F)ccc3cc(O)cc-4c23)C1 [Example 19] the IC50 (pERK in AsPC-1 cells; [1]) was > 10000 nM and the IC50 (pERK in AGS cells; Homo sapiens, AGS, 3 h) was > 10000 nM.
In the case of C[C@@]1(O)CCCN(c2nc(OCC(F)(F)F)nc3c(F)c4c(cc23)NCCCCCc2c(F)ccc3cc(O)cc-4c23)C1 [Example 17A, (R)-3,15-difluoro-11-(3-hydroxy-3-methylpiperidin-1-yl)-13-(2,2,2-trifluoroethoxy)-4,5,6,7,8,9-hexahydro-naphtho[1′,8′:4,5,6111]azacycloundecino[2,3-g]quinazoline-17-ol], the IC50 (pERK in AsPC-1 cells; [1]) is reported as > 10000 nM and the IC50 (pERK in AGS cells; Homo sapiens, AGS, 3 h) is reported as 5270 nM.
With C=C1CN2CCC[C@@]2(COc2nc(N3CCC[C@@](C)(O)C3)c3cc4c(c(F)c3n2)-c2cc(OC(=O)CCCCCCCCC)cc3ccc(F)c(c23)CCOCCN4C)C1 [Example 51, 3,15-difluoro-11-((R)-3-hydroxy-3-methylpiperidin-1-yl)-9-methyl-13-(((S)-2-methylenetetrahydro-1H-pyrazin-7a(5H)-yl)methoxy)-4,5,8,9-tetrahydro-7H-naphtho[1′,8′:7,8,9111]oxa[4]azacycloundeca[5,6-g]quinazoline-17-yl decanoate] the IC50 (pERK in AsPC-1 cells; [1]) was 6.1 nM and the IC50 (pERK in AGS cells; Homo sapiens, AGS, 3 h) was 2.4 nM.
C[C@@]1(O)CCCN(c2nc(OCC34CCC(CC3)CO4)nc3c(F)c4c(cc23)NCCCCCc2c(F)ccc3cc(O)cc-4c23)C1 [Example 18A] was tested, and the IC50 (pERK in AsPC-1 cells; [1]) was > 10000 nM and the IC50 (pERK in AGS cells; Homo sapiens, AGS, 3 h) was > 10000 nM.
For C=C1CN2CC(F)(F)CC2(COc2nc(N3CCC[C@@](C)(O)C3)c3cc4c(c(F)c3n2)-c2cc(O)cc3ccc(F)c(c23)CCCCCN4)C1 (single isomer, unassigned) [Example 57B], the IC50 (pERK in AsPC-1 cells; AsPC-1 cells) was > 10000 nM and the IC50 (pERK in AGS cells) was > 10000 nM.
For C=C1CN2CC(=C)CC2(COc2nc(N3CCC[C@@](C)(O)C3)c3cc4c(c(F)c3n2)-c2cc(O)cc3ccc(F)c(c23)CCCCCN4)C1 [Example 31], the IC50 (pERK in AsPC-1 cells; [1]) was 225 nM and the IC50 (pERK in AGS cells; Homo sapiens, AGS, 3 h) was 136 nM.
